{"source": "patent US20230355605A1", "about": "“DRUG FOR ENHANCING FIBRINOLYTIC SYSTEM, AND USE THEREFOR” (priority 2020, published 2023)", "key": {"[1]": {"conditions": "human, in vivo", "protocol": "A placebo-controlled repeated oral dose study was performed to examine the safety, pharmacokinetics, and pharmacodynamics of the present compound during repeated oral dose administration in healthy Japanese adult males (subjects).\nThe oral dosages were 60 mg (step 1) and 120 mg (step 2) per day, and the number of subjects per step was 9 (6 subjects in the present compound group and 3 subjects in the placebo group). The transition from one step to the next was made after confirming safety. The present compound or the placebo was orally administered once daily after breakfast for 7 days.\nAfter administration of the present compound and the placebo, the following items were evaluated in each subject. Safety: vital signs (axillary temperature, blood pressure while seated, and pulse rate while seated), 12-lead electrocardiogram, laboratory tests (hematological test, blood biochemical test, blood coagulation test, urinalysis, and fecal test), and adverse events • Pharmacokinetics: plasma concentration of the unchanged drug and metabolite concentration • Pharmacological activities: PAI-1 activity and t-PA activity"}, "[2]": {"tested_on": "chronic-phase chronic myeloid leukemia (CML) patients", "assay": "Phase II study in combination with TKI in chronic-phase CML patients (4 weeks)", "assay_type": "in vivo, human", "text": "The present compound and a tyrosine kinase inhibitor (hereinafter referred to as “TKI”) were used in combination and repeatedly administered orally to patients with chronic-phase chronic myeloid leukemia (CML patients) to evaluate the safety of the present compound and the effectiveness of the present compound against CML.\nOral administration of the TKI, which is a drug used in combination, was continued for a total of 12 weeks, including the 8-week observation period. The safety analysis set (SAS) and the full analysis set (FAS) each consisted of the 21 patients, and the per protocol set (PPS) consisted of 18 patients."}, "[3]": {"tested_on": "mouse model of bleomycin-induced pulmonary fibrosis", "assay": "Mouse model of bleomycin-induced pulmonary fibrosis", "assay_type": "in vivo", "protocol": "The improvement effect of the present compound on pulmonary fibrosis (remodeling after lung damage) was evaluated using a mouse model of bleomycin-induced pulmonary fibrosis. […] Because of similarity of histopathological changes to pulmonary fibrosis in humans, this mouse model is widely used for the evaluation of the drug efficacy.\nTo a fibrosis mouse model (fibrosis model group) given a single dose of bleomycin (1.2 mg/mL), the present compound (0.75 mg/kg/day) was orally administered for 21 days (present compound administration group, n = 9), and biochemical analysis of the lungs and measurement of clinical conditions of the lungs were performed on day 22. For comparison, instead of the present compound, the solvent used to dissolve the present compound was administered to a fibrosis model group in the same manner (vehicle group, n = 10), and biochemical analysis and measurement of clinical conditions of the lungs were performed. As a positive control group, a dexamethasone administration group (0.25 mg/kg administration, n = 9) was used. The biochemical analysis was performed using lung hydroxyproline values as an index. The clinical conditions of the lungs were evaluated by performing Masson’s trichrome staining and calculating Ashcroft scores according to a report of Ashcroft et al. (Ashcroft T et al., J Clin Pathol, 1988; 41:467). The clinical conditions were confirmed by comparing a normal mouse group (normal group, n = 10) with the vehicle group (n = 10), and the improvement effect of the present compound on pulmonary fibrosis was evaluated by comparing the vehicle group (n = 10) with the present compound administration group (n = 9). Differences between the mean values of the groups were tested by the Bonferroni selected pairs test using Prism 4 (GraphPad Software).\nTable 1 and FIG. 3(A) and FIG. 3(B) show the results of comparisons of the lung hydroxyproline values and the Ashcroft scores in the groups. The mean values of the groups are expressed as mean±SD, and examination was performed at a 5% significance level."}, "[4]": {"conditions": "day 22, present compound 0.75 mg/kg/day oral 21 days, dexamethasone 0.25 mg/kg, mean±SD"}}}
{"smiles": "O=C(Nc1ccc(Cl)cc1C(=O)[O-])c1cccc(-c2cccc3cccnc23)c1.[Na+]", "note": "[present compound, sodium 5-chloro-2-({ [3-(quinolin-8-yl)phenyl]carbonyl}amino)benzoate]", "values": [{"measurement": "AUC on day 7 compared with day 1", "setting": "[1]", "result": "increased"}, {"measurement": "Tmax, t½ 0-24h, and Cmax′", "setting": "[1]", "result": "not affected by repeated administration"}, {"measurement": "cumulative DMR achievement rate (MR 4.5, BCR-ABL^IS≤0.0032%)", "setting": "[2]; 120 mg once daily 4 weeks in combination with TKI", "result": "increased"}, {"measurement": "adverse events causally related to the investigational drug", "setting": "[2]; 120 mg once daily 4 weeks with TKI, 21 patients (SAS)", "result": "No adverse events"}, {"measurement": "Ashcroft score compared with vehicle group", "setting": "[3]; 5% significance level", "result": "significantly lower"}, {"measurement": "lung hydroxyproline value compared with vehicle group", "setting": "[3]; 5% significance level", "result": "significantly lower"}, {"measurement": "Ashcroft score", "setting": "[3]; [4]", "result": "2.2±0.3"}, {"measurement": "Lung hydroxyproline value", "setting": "[3]; [4]", "result": "58.7±10.1", "unit": "µg/left lung"}]}
